Measured values reported in patent publication US5225571A, “Substituted dihydroxy-bis-[5-hydroxy-2(5H)-furanone-4-yl]-alkanes as anti-inflammatory agents” (Allergan, Inc., priority 1991, dated 1993).
Read-outs that look alike come from different tables or passages of the source.

Biological target: bee venom phospholipase A2 (Apis mellifera, UniProt P00630)
Test: biochemical
Type: biochemical
Settings: read-out: 50% inhibition (IC50) of bee venom phospholipase A2

Sequence of bee venom phospholipase A2 (P00630 34-167 limits assumed): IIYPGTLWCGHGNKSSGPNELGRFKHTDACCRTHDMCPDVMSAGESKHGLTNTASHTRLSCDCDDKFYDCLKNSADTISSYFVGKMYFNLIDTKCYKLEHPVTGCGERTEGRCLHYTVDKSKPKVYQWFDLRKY

O=C1C=C(C(CCCCCCCCCCC(OC(=O)Nc2ccccc2)C2=CC(=O)OC2O)OC(=O)Nc2ccccc2)C(O)O1 (stereo not shown) [Compound 2, 1,12-Di(N-phenylcarbamoyl)-1,12-bis[5-hydroxy-2(5H)-furano-4-yl] dodecane]
IC50 (pH 7.4): 30 nM

CC(=O)OC(CCCCCCCCCCCCC(OC(C)=O)C1=CC(=O)OC1O)C1=CC(=O)OC1O (stereo not shown) [Compound 1, 1,14-Diacetoxy-1,14-bis[5-hydroxy-2(5H)-4-furanoyl]tetradecane]
IC50 (pH 7.4): 10 nM

CC(C)(C)C(=O)OC(CCCCCCCCCCCCC(OC(=O)C(C)(C)C)C1=CC(=O)OC1OC(=O)Nc1ccccc1)C1=CC(=O)OC1OC(=O)Nc1ccccc1 (stereo not shown) [Compound 4, 1,14-Di-(tert-butanoyloxy)-1,14-bis[5-(N-phenylcarbamoyl)-2(5H)-furano-4-yl]-tetradecane]
IC50: > 1000 nM

CC(C)(C)C(=O)OC(CCCCCCCCCCCCC(OC(=O)C(C)(C)C)C1=CC(=O)OC1O)C1=CC(=O)OC1O (stereo not shown) [Compound 3, 1,14-Di(tert-butanoyloxy)-1,14-bis[5-hydroxy-2(5H)-furano-4-yl]tetradecane]
IC50 (pH 7.4): 20 nM
